From patent US9655887B2, “Pharmaceutical composition and the use thereof, and application regime of said pharmaceutical composition for on-demand contraception” (BAYER PHARMA AKTIENGESELLSCHAFT, priority 2013, dated 2017) come the findings set out here.

The test has as its target EP2 subtype of the human PGE2 receptor (hEP2 receptor) (Homo sapiens, UniProt P43116). Nature of the test: cAMP antagonism test, human prostaglandin E2 (subtype EP2) receptor signal. It counts as cell-based. From the text:
1. Detection of Antagonism to the Human Prostaglandin E2 (Subtype EP2) Receptor Signal
The binding of PGE2 to the EP2 subtype of the human PGE2 receptor induces the activation of membrane-located adenylate cyclases and leads to the formation of cAMP. In the presence of the phosphodiesterase inhibitor IBMX, the cAMP accumulated owing to this stimulation and released by cell lysis is used in a competitive detection method. In this test, the cAMP present in the lysate competes with a fluorescence-labelled cAMP (cAMP-d2) for binding to an Eu cryptate-labelled anti-cAMP antibody.
In the absence of cellular cAMP, a maximal signal is produced, which is attributable to the binding of this cAMP-d2 molecule to the antibody. After excitation of the […] at 337 nm, there is a fluorescence resonance energy transfer (FRET) to the Eu cryptate molecules of the anti-cAMP antibody (labelled therewith), followed by a long-lasting emission signal at 665 nm (and at […]). Both signals are measured in a suitable measurement instrument with a time delay, i.e. after decay of the background fluorescence. Any increase in the low FRET signal caused by prostaglandin E2 administration (measured as well ratio change=emission665nm/emission620nm*10000) indicates the action of antagonists.
1.2.1. Test for Antagonism (Data Per Well of a 384-Well Plate):
To a test plate with the substance solutions already added (0.05 μl; 100% DMSO, concentration range from 0.8 nM-16.5 nM) were added 4 μl of a cAMP-d2/cell suspension (625000 cells/ml). After a 20-minute preincubation at room temperature (RT), 2 μl of a 3×PGE2 solution (1.5 nM, in PBS-IBMX) were added and incubated in the presence of the agonist for a further 60 mins at RT (volume: […]). Next the reaction was stopped by addition of 2 μl of lysis buffer and incubated for a further 20 mins at RT before the actual measurement (volume: ˜8 μl).

EP2 subtype of the human PGE2 receptor (hEP2 receptor), sequence (P43116 whole entry): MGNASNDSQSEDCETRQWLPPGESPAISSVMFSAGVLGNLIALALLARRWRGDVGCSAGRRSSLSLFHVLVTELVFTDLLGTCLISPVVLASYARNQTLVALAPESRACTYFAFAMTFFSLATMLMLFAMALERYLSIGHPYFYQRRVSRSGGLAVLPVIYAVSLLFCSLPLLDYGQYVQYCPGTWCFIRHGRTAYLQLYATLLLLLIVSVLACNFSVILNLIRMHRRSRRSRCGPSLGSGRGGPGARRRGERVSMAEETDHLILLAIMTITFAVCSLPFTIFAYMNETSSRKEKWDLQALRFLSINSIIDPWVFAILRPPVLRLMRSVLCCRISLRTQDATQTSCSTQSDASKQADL

Turning to `COCCNC(=O)c1ccc2nn(CC3CCN(C(=O)c4ccc(OC(C)(C)C)cc4)CC3)cc2c1C` [Example E2, 2-{[1-(4-tert-butoxybenzoyl)piperidin-4-yl]methyl}-N-(2-methoxyethyl)-4-methyl-2H-indazole-5-carboxamide], the IC50 (as a rule, the concentration that inhibits the measured activity by half) was above 50 nM.
Under `COCCNC(=O)c1ccc2nn(CC3CCN(C(=O)c4ccc(Oc5ccc(F)cc5)cc4)CC3)cc2c1C` [Example E3, 2-({1-[4-(4-fluorophenoxy)benzoyl]piperidin-4-yl}methyl)-N-(2-methoxyethyl)-4-methyl-2H-indazole-5-carboxamide] stands above 50 nM; under `COCCNC(=O)c1ccc2nn(CC3CCN(C(=O)c4ccc(-c5ccc(F)cc5)cc4)CC3)cc2c1C` [Example E5, 2-({1-[(4′-fluorobiphenyl-4-yl)carbonyl]piperidin-4-yl}methyl)-N-(2-methoxyethyl)-4-methyl-2H-indazole-5-carboxamide], above 50 nM; under `COCCNC(=O)c1ccc2nn(CC3CCN(C(=O)c4ccc(OC)cc4F)CC3)cc2c1C` [Example E7, 2-{[1-(2-fluoro-4-methoxybenzoyl)piperidin-4-yl]methyl}-N-(2-methoxyethyl)-4-methyl-2H-indazole-5-carboxamide], above 50 nM.
As for `COCCNC(=O)c1ccc2nn(CC3CCN(C(=O)c4ccc(Br)cc4F)CC3)cc2c1C` [Example E8, 2-{[1-(4-bromo-2-fluorobenzoyl)piperidin-4-yl]methyl}-N-(2-methoxyethyl)-4-methyl-2H-indazole-5-carboxamide], the figure is above 50 nM.
Under `COCCNC(=O)c1ccc2nn(CC3CCN(C(=O)c4ccc(C)cc4F)CC3)cc2c1C` [Example E9, 2-{[1-(2-fluoro-4-methylbenzoyl)piperidin-4-yl]methyl}-N-(2-methoxyethyl)-4-methyl-2H-indazole-5-carboxamide] stands above 50 nM; under `COCCNC(=O)c1ccc2nn(CC3CCN(C(=O)c4ccc(C(F)(F)F)cc4F)CC3)cc2c1C` [Example E10, 2-({1-[2-fluoro-4-(trifluoromethyl)benzoyl]piperidin-4-yl}methyl)-N-(2-methoxyethyl)-4-methyl-2H-indazole-5-carboxamide], above 50 nM; under `COCCNC(=O)c1ccc2nn(CC3CCN(C(=O)c4ccc(S(F)(F)(F)(F)F)cc4)CC3)cc2c1C` [Example E11, N-(2-methoxyethyl)-4-methyl-2-({1-[4-(pentafluoro-λ^6-sulphanyl)benzoyl]piperidin-4-yl}methyl)-2H-indazole-5-carboxamide], above 50 nM.
`COCCNC(=O)c1ccc2nn(CC3CCN(C(=O)c4ccc(C)cc4)CC3)cc2c1C` [Example E12, N-(2-methoxyethyl)-4-methyl-2-{[1-(4-methylbenzoyl)piperidin-4-yl]methyl}-2H-indazole-5-carboxamide] yielded an IC50 above 50 nM.
As for `COCCNC(=O)c1ccc2nn(CC3CCN(C(=O)c4ccc(Oc5ccc(Cl)cc5)cc4)CC3)cc2c1C` [Example E13, 2-({1-[4-(4-chlorophenoxy)benzoyl]piperidin-4-yl}methyl)-N-(2-methoxyethyl)-4-methyl-2H-indazole-5-carboxamide], the figure is above 50 nM.
Under `COCCNC(=O)c1ccc2nn(CC3CCN(C(=O)c4ccc(Oc5ccc(C)cc5)cc4)CC3)cc2c1C` [Example E14, N-(2-methoxyethyl)-4-methyl-2-({1-[4-(4-methylphenoxy)benzoyl]piperidin-4-yl}-methyl)-2H-indazole-5-carboxamide] stands above 50 nM; under `COCCNC(=O)c1ccc2nn(CC3CCN(C(=O)c4ccc(Oc5ccc(C(C)(C)C)cc5)cc4)CC3)cc2c1C` [Example E15, 2-({1-[4-(4-tert-butylphenoxy)benzoyl]piperidin-4-yl}methyl)-N-(2-methoxyethyl)-4-methyl-2H-indazole-5-carboxamide], above 50 nM.
